Experimental data from patent publication US11034648B2, “Cystobactamide derivatives” (priority 2017, dated 2021).
≈ marks a conversion by molar mass, not a printed value. Like-named read-outs stand apart in the source and are kept apart here.

Experiments:
Assay type in all cases: cell-based
[1] = tested on: P. aeruginosa ΔmexAB; test: microbe, parasite or virus in culture; conditions: Pseudomonas aeruginosa, 16 h
Protocol: (§1) Cystobactamid derivatives synthesized were tested against relevant Gram negative and positive bacteria of clinical interest. Experimental procedures used for the biological characterization of the compounds are the same as previously described in WO 2016/082934.
(§2) Bacterial strains used in susceptibility assays (minimum inhibitory concentration, MIC) were either part of our internal strain collection or purchased from the German Collection of Microorganisms and Cell Cultures (Deutsche Sammlung von Mikroorganismen und Zellkulturen, DSMZ) and the American Type Culture Collection (ATCC). The susceptible E. coli strain (WT) and fluoroquinolone-resistant mutants E. coli WT-3 and WT-III were kindly provided by Prof Dr. P. Heisig, Pharmaceutical Biology and Microbiology, University of Hamburg, Germany. The efflux-deficient strain P. aeruginosa ΔmexAB was kindly provided by Prof Dr. S. Häußler, Institute for Molecular Bacteriology, TWINCORE, Hannover, Germany. All compounds were prepared as DMSO stocks and MIC values were determined in standard microbroth dilution assays in 96-well MTPs as described in Baumann et al., Angew Chem Int Ed Engl. 2014; 53(52):14605-9. In brief, overnight cultures of bacteria were diluted in either tryptic soy broth (TSB: 1.7% peptone casein, 0.3% peptone soymeal, 0.25% glucose, 0.5% NaCl, 0.25% K2HPO4; pH 7.3; S. pneumoniae and E. faecalis) or cation-adjusted Müller-Hinton Broth (BBL™, BD; all other bacteria) and adjusted to 10^4-10^6 cfu/mL. Bacteria were grown in the presence of the derivatives in serial dilution for approx. 16 h at 30-37° C. MIC values were determined and were defined as the antibiotic concentration at which no visual growth of bacteria was observed.

[2] = tested on: E. coli ΔtolC; test: microbe, parasite or virus in culture; conditions: Escherichia coli, 16 h
Protocol: as §1, §2

[3] = tested on: S. aureus Newman; test: MIC, microbroth dilution susceptibility assay; conditions: Staphylococcus aureus, NEWMAN, read-out: MIC S. aureus Newman
Protocol: as §1, §2

[4] = tested on: P. aeruginosa WT PA14; test: MIC, microbroth dilution susceptibility assay; conditions: Pseudomonas aeruginosa
Protocol: as §1, §2

[5] = tested on: E. coli WT DSM-1116; test: MIC, microbroth dilution susceptibility assay; conditions: Escherichia coli, read-out: MIC E. coli WT DSM-1116
Protocol: as §1, §2

[6] = read-out: MIC P. aeruginosa ΔmexAB, efflux-deficient strain, small panel, Tables 1a/1b
[7] = read-out: MIC E. coli ΔtolC, small panel, Tables 1a/1b, no visual growth after approx. 16 h
[8] = PA14, small panel, Tables 1a/1b, read-out: MIC P. aeruginosa WT PA14
[9] = DSM1116, small panel, Tables 1a/1b, no visual growth after approx. 16 h

SMILES | MIC [1, 6] | MIC [2, 7] | MIC ([3]; small panel, Tables 1a/1b) | MIC [4, 8] | MIC [5, 9] | MIC ([1]; read-out: MIC P. aeruginosa ΔmexAB) | MIC ([2]; read-out: MIC E. coli ΔtolC) | MIC [3] | MIC ([4]; PA14, read-out: MIC P. aeruginosa WT PA14) | MIC ([5]; DSM1116, 16 h)
CC(=O)Nc1ccc(C(=O)Nc2ccc(C(=O)N[C@@H](CC(N)=O)C(=O)Nc3ccc(C(=O)Nc4ccc(C(=O)Nc5ccc(C(=O)O)cc5)c(O)c4OC(C)C)cc3)cc2)cc1 [Compound 36, (S)-4-(4-(4-(2-(4-(4-acetamidobenzamido)benzamido)-4-amino-4-oxobutanamido)benzamido)-2-hydroxy-3-isopropoxybenzamido)benzoic acid] | > 64 µg/mL | 0.06 µg/mL (≈ 0.0711 µM) | 64 µg/mL (≈ 75.8 µM) | > 64 µg/mL | 16 µg/mL (≈ 19 µM) |  |  |  |  | 
CC(C)Oc1c(NC(=O)c2ccc(NC(=O)[C@H](CC(N)=O)NC(=O)c3ccc(NC(=O)c4ccc(NC(N)=O)cc4)cc3)cc2)ccc(C(=O)Nc2ccc(C(=O)O)cc2)c1O [Compound 46, (S)-4-(4-(4-(4-amino-4-oxo-2-(4-(4-ureidobenzamido)benzamido)butanamido)benzamido)-2-hydroxy-3-isopropoxybenzamido)benzoic acid] | 4 µg/mL (≈ 4.73 µM) | 0.03 µg/mL (≈ 0.0355 µM) | 64 µg/mL (≈ 75.8 µM) | > 64 µg/mL | 0.5 µg/mL (≈ 0.592 µM) |  |  |  |  | 
CC(C)Oc1c(NC(=O)c2ccc(NC(=O)[C@H](CC(N)=O)NC(=O)c3ccc(NC(=O)c4ccc(N)cc4)cc3)cc2)ccc(C(=O)Nc2ccc(C(=O)O)cc2)c1O [Compound 40, (S)-4-(4-(4-(4-amino-2-(4-(4-aminobenzamido)benzamido)-4-oxobutanamido)benzamido)-2-hydroxy-3-isopropoxybenzamido)benzoic acid] | 4 µg/mL (≈ 4.99 µM) | 32 µg/mL (≈ 39.9 µM) | > 64 µg/mL | > 64 µg/mL | 2 µg/mL (≈ 2.49 µM) |  |  |  |  | 
CC(C)COc1c(NC(=O)c2ccc(NC(=O)[C@H](CC(N)=O)NC(=O)c3ccc(NC(=O)c4ccc([N+](=O)[O-])cc4)cc3)cc2)ccc(C(=O)Nc2ccc(C(=O)O)cc2)c1O [Compound 65, (S)-4-(4-(4-(4-amino-2-(4-(4-nitrobenzamido)benzamido)-4-oxobutanamido)benzamido)-2-hydroxy-3-isobutoxybenzamido)benzoic acid] | > 64 µg/mL | > 64 µg/mL | 1 µg/mL (≈ 1.18 µM) | > 64 µg/mL | > 64 µg/mL |  |  |  |  | 
CC(C)Oc1c(NC(=O)c2ccc(NC(=O)[C@H](CC(N)=O)NC(=O)c3ccc(NC(=O)c4ccccc4)cc3)cc2)ccc(C(=O)Nc2ccc(C(=O)O)cc2)c1O [Compound 38, (S)-4-(4-(4-(4-amino-2-(4-benzamidobenzamido)-4-oxobutanamido)benzamido)-2-hydroxy-3-isopropoxybenzamido)benzoic acid] |  |  |  |  |  | 2 µg/mL (≈ 2.54 µM) | 0.5 µg/mL (≈ 0.635 µM) | > 64 µg/mL | > 64 µg/mL | > 64 µg/mL
CC(C)Oc1c(NC(=O)c2ccc(NC(=O)[C@H](CC(N)=O)NC(=O)c3ccc(NC(=O)c4cccc([N+](=O)[O-])c4)cc3)cc2)ccc(C(=O)Nc2ccc(C(=O)O)cc2)c1O [Compound 41, (S)-4-(4-(4-(4-amino-2-(4-(3-nitrobenzamido)benzamido)-4-oxobutanamido)benzamido)-2-hydroxy-3-isopropoxybenzamido)benzoic acid] | 0.5 µg/mL (≈ 0.601 µM) | 0.25 µg/mL (≈ 0.301 µM) | > 64 µg/mL | > 64 µg/mL | > 64 µg/mL |  |  |  |  | 
CC(C)COc1c(NC(=O)c2ccc(NC(=O)[C@H](CC(N)=O)NC(=O)c3ccc(NC(=O)c4ccc(C#N)cc4)cc3)cc2)ccc(C(=O)Nc2ccc(C(=O)O)cc2)c1O [Compound 126, (S)-4-(4-(4-(4-amino-2-(4-(4-cyanobenzamido)benzamido)-4-oxobutanamido)benzamido)-2-hydroxy-3-isobutoxybenzamido)benzoic acid] | > 64 µg/mL | < 0.03 µg/mL | 0.25 µg/mL (≈ 0.303 µM) | > 64 µg/mL | 0.25 µg/mL (≈ 0.303 µM) |  |  |  |  | 
CC(C)Oc1c(NC(=O)c2ccc(NC(=O)[C@H](CC(N)=O)NC(=O)c3ccc(NC(=O)c4ccc(C#N)c(F)c4)cc3)cc2)ccc(C(=O)Nc2ccc(C(=O)O)cc2)c1O [Compound 51, (S)-4-(4-(4-(4-amino-2-(4-(4-cyano-3-fluorobenzamido)benzamido)-4-oxobutanamido)benzamido)-2-hydroxy-3-isopropoxybenzamido)benzoic acid] | 0.5 µg/mL (≈ 0.603 µM) | ≤ 0.03 µg/mL | 2 µg/mL (≈ 2.41 µM) | 8 µg/mL (≈ 9.64 µM) | 0.25 µg/mL (≈ 0.301 µM) |  |  |  |  | 
